Experimental data from patent publication US20240197596A1, “COMPOUNDS USEFUL AS HAIR DYES” (National University of Singapore, priority 2021, published 2024).
In brackets after ≈: the same amount, converted by molar mass. Several values for one entry are separate records, joined by “and”; a condition that tells them apart may be missing. Identical values can stand only once. Entries after “also recorded” stand apart in the source; their conditions may differ.

Tests used:
[1] = Thermodynamic solubility assay (modified shake flask, LC-MS/MS); settings: Milli-Q water, pH=7, 25° C., 24 h, 3 separate determinations; for solubility at 24 h: 25 °C, pH 7, water, thermodynamic from solid
Procedure: The aqueous solubilities (pH=7) of these compounds were measured using the modified shake flask method and LC-MS/MS. Each hair dye was added into a 2 mL glass vial containing Milli-Q water (1 mL) to form the precipitates at 25° C. Then the mixture was subjected to a solubility-equilibrium stage. The vials were shaken at 300 rpm at 25° C. for 24 h. The precipitate was separated by centrifugation at 23,000 g for 20 min. Subsequently, 0.5 mL of supernatant was transferred into a 1 mL Eppendorf tube, and it was centrifuged again as mentioned above. The supernatant was then used for LC-MS/MS analysis.
The mass spectrometric analysis was performed by use of a AB SCIEX QTRAP 5500 tandem mass spectrometry (MS/MS) system (AB SCIEX, Framingham, MA, USA) operating in triple quadrupole positive mode (ESI+) equipped with an AB Sciex Turbo Ion Spray interface. Acquisition and analysis of data were performed with Analyst software ver. 1.4.2 (Applied Biosystems) which performed all chromatographic peak integration. For each hair dye, a standard curve consisting of four concentrations was established.
Solvent A was composed of 0.1% [v/v] formic acid in Milli-Q water while solvent B was composed of 0.1% [v/v] formic acid in acetonitrile. A mobile phase gradient pumped at 0.6 mL/min was used to elute the hair dyes from the column. The column was equilibrated for 1 min resulting in a total run time of 5 min. The injection volume was 5.0 μL for all derivatives. To prevent compound accumulation on the needle, 50% methanol in ACN was used as needle wash for 30 s per sample.

[2] = Skin permeation study, Franz diffusion cell; type: in vitro ADME, porcine; settings: for Cumulative amount at 8th hour: 1% w/v in deionized water; for Cumulative amount at 8th hour / Cumulative amount comparison of PPD vs derivatives (times less than PPD) / Permeated through skin into receptor / Recovered in donor compartment / Recovered in skin / Recovered in skin outside diffusion area / Recovered in skin swabs / Recovered on parafilm and in washes: 8 h; for Permeated through skin into receptor / Recovered in donor compartment / Recovered in skin / Recovered in skin outside diffusion area / Recovered in skin swabs / Recovered on parafilm and in washes: mass balance; for recovery at 8 h, 1 % w/v: pig, end of 8 h, read-out: Total recovery (mean percentage parent compound recovery)
Procedure: In each Franz cell, a piece of pig ear skin prepared to a thickness of […] was clamped securely. 5 mL of PBS solution was added to the receiver compartment which was purged of air bubbles to ensure maximal contact of the skin piece with the solution. Donor solution was prepared by dissolving N1-N13 in deionized water at 1% w/v, and 900 μL was added to the donor compartment. The study was conducted for 8 h, and aliquots of 200 μL were removed from the receiver solution and topped up with fresh PBS at each timepoint of 15-minutes intervals for the first hour and every hour after that.
For mass balance, at the end of 8 h, skin pieces and swabs of the top and bottom surface of the skin were collected and stored in ACN for N1-N13 extraction. Donor solution and receiver solution were also collected.
The aliquot samples collected were subjected to 2-step extraction using 750 μL of dichloromethane (DCM). […] The solvent was dried using the TurboVap, and then reconstituted with 198 μL of 0.1% formic acid in 50% methanol in water and spiked with 2 μL of ANP (internal standard). The processed aliquot samples and mass balance samples were then sent for analysis using LC-MS/MS. The compounds' steady state fluxes and permeability coefficients were then calculated by fitting the solution to Fick's […] of diffusion at the steady state (linear part) of each experimental cumulative amount curve.

[3] = Hair nuance test; design: key to L* / a* / b*: CIELAB L*, a*, b* coordinates; key to ΔE (total colour difference to natural hair): ΔE = √((L*−L0)²+(a*−a0)²+(b*−b0)²) vs untreated hair; settings: for eventual colour of bleached hair, Type A: Type A (Non-oxidative) formulation; for eventual colour of bleached hair, Type B: Type B (Oxidative, H2O2) formulation; for eventual colour of bleached hair, Type C: Type C (Oxidative with coupler resorcinol) formulation
Procedure: 35 g of bleaching powder was mixed with 50 mL of developer then applied onto undyed black hair (wrapped in aluminium foil to enhance the bleaching process) and left on for 45 min. The hair was then rinsed with deionized water and shampoo and left to dry. This process was repeated twice.
Hair dye formulations were prepared from N1-N13 according to methods reported (New Journal of Chemistry. 2019; 43(41):16188-99), and with the compositions stated in Table 11 Bleached hair samples were immersed into the respective formulations for 20 min, then air dried for 20 min. Then they were shampooed twice and treated with conditioner for 5 min.
SkinColorCatch (Delfin Technologies Ltd, Kuopio, Finland) was used to measure CIELAB tristimulus L*, a* and b* values of the dyed hair samples and baseline L0, a0, b0 values from untreated hair. The difference in colour tone (ΔH) and the total colour difference (ΔE) were then derived from the values obtained with the equations below:
ΔH=√{square root over ((a*−a0)^2+(b*−b0)^2)}
ΔE=√{square root over ((L*−L0)^2+(a*−a0)^2+(b*−b0)^2)}

[4] = system: THP-1 cells; assay: MTT assay on THP-1 cells (CV75); type: cell-based, human; settings: THP-1 cells, 24 h
Procedure: THP-1 (human acute monocytic leukaemia cell line) cell suspension was adjusted to 1×10^5 cells per well and seeded in 96-well plates. The plate was incubated at 37° C. with 5% CO2. After 24 h, 10 mM stock solutions of N1-N13 were prepared in autoclaved milli-Q water. A series of concentrations diluted in media was prepared and added to the wells. Each concentration was performed in 6-replicates, and seeded wells with only media and no compound were used as controls while wells with only media were used as blanks. The plate was incubated for 24 h, after which 100 μL of MTT reagent was added and the plate was further incubated for 3 h before adding 100 μL of DMSO. Subsequently, the plate was shaken for 20 min, and then absorbance at 570 nm was determined using a Bio-Tek plate reader. Percentage cell viability was calculated and CV75 values were determined.

[5] = Type C (Oxidative with coupler resorcinol)

solubility at 24 h [1] [mg/mL]	Solubility [1]	Cumulative amount comparison of PPD vs derivatives (times less than PPD) [2]	Permeated through skin into receptor [2]	Recovered in donor compartment [2]	Recovered in skin [2]	Recovered in skin outside diffusion area [2]	Recovered in skin swabs [2]	Recovered on parafilm and in washes [2]	recovery at 8 h, 1 % w/v [2] [%]	Structure (SMILES)	L* ([3]; Type A (Non-oxidative))	a* ([3]; Type A (Non-oxidative))	b* ([3]; Type A (Non-oxidative))	ΔE (total colour difference to natural hair) ([3]; Type A (Non-oxidative))	ΔH (difference in colour tone) ([3]; Type A (Non-oxidative))	eventual colour of bleached hair, Type A [3]	L* ([3]; Type B (Oxidative))	a* ([3]; Type B (Oxidative))	b* ([3]; Type B (Oxidative))	ΔE (total colour difference to natural hair) ([3]; Type B (Oxidative))	other results
78 to 100 (≈ 345 to 442 mM)	85 + 2.5 mg/ml	825.0	<0.001 % of applied compound dose	95.3 % of applied compound dose	0.04 % of applied compound dose	0.0045 % of applied compound dose	0.06 % of applied compound dose	0.009 % of applied compound dose	95 ± 1.42	COCCOCCOc1cc(N)ccc1N [Compound N5, 2-[2-(2-methoxyethoxy)ethoxy]benzene-1,4-diamine]	18	4	−1	10.0	4.5	dark brown colour shade; also recorded: Dark cinnamon brown	26	3.7	10.3	19.7	Cumulative amount at 8th hour [2]: 0.0065 μg/cm^2 and 0.00654 μg/cm^2; ΔH (difference in colour tone) ([3]; Type B (Oxidative)): 10.0; eventual colour of bleached hair, Type B [3]: Almond brown; L* [3, 5]: 16; a* [3, 5]: 0; b* [3, 5]: −6.7; ΔE (total colour difference to natural hair) [3, 5]: 10.4; ΔH (difference in colour tone) [3, 5]: 7.7; eventual colour of bleached hair, Type C [3]: vibrant blue colours; also recorded: Indigo; CV75 (concentration affording 75% cell viability), 1 × CV75 [4]: 68.3 µg/mL
78 to 100 (≈ 428 to 549 mM)	78 + 2.5 mg/ml	633	<0.001 % of applied compound dose	95.0 % of applied compound dose	0.04 % of applied compound dose	0.003 % of applied compound dose	0.05 % of applied compound dose	0.006 % of applied compound dose	95.1 ± 1.4	CC(O)COc1cc(N)ccc1N (stereo not drawn) [Compound N10, 1-(2,5-diaminophenoxy)propan-2-ol]	25	12	6	20.61	4.53	Brownish Purple	11	1	−2	3.74	Cumulative amount at 8th hour [2]: 0.008 μg/cm^2; ΔH (difference in colour tone) ([3]; Type B (Oxidative)): 1.93; eventual colour of bleached hair, Type B [3]: black colour; L* [3, 5]: 30; a* [3, 5]: 18; b* [3, 5]: 18; ΔE (total colour difference to natural hair) [3, 5]: 32.46; ΔH (difference in colour tone) [3, 5]: 5.69; eventual colour of bleached hair, Type C [3]: Brown; CV75 (concentration affording 75% cell viability), 1 × CV75 [4]: 117 µg/mL
78 to 100 (≈ 464 to 595 mM)	90 + 2.6 mg/ml	453.7	<0.001 % of applied compound dose	98.2 % of applied compound dose	0.04 % of applied compound dose	0.0024 % of applied compound dose	0.05 % of applied compound dose	0.004 % of applied compound dose	98 ± 1.33	COCOc1cc(N)ccc1N [Compound N2, 2-(methoxymethoxy)benzene-1,4-diamine]	11	1	−2	3.7	3.16	Walnut brown	9	0	−1	2.0	ΔH (difference in colour tone) ([3]; Type B (Oxidative)): 2.0; L* [3, 5]: 21; a* [3, 5]: 17; b* [3, 5]: 6; ΔE (total colour difference to natural hair) [3, 5]: 21.4; ΔH (difference in colour tone) [3, 5]: 17.7; eventual colour of bleached hair, Type C [3]: Black; CV75 (concentration affording 75% cell viability), 1 × CV75 [4]: 72.4 µg/mL
65 to 72 (≈ 386 to 428 mM)	72 + 3.4 mg/ml	445	<0.001 % of applied compound dose	94.5 % of applied compound dose	0.05 % of applied compound dose	0.0022 % of applied compound dose	0.03 % of applied compound dose	0.003 % of applied compound dose	94.6 ± 1.5	Nc1ccc(N)c(OCCO)c1 [Compound N9, 2-(2,5-diaminophenoxy)ethan-1-ol]	23	8	10	18.46	4.29	brown colour	32	0	4	23.19	ΔH (difference in colour tone) ([3]; Type B (Oxidative)): 4.81; eventual colour of bleached hair, Type B [3]: brown colour; L* [3, 5]: 29; a* [3, 5]: 19; b* [3, 5]: 19; ΔE (total colour difference to natural hair) [3, 5]: 32.93; ΔH (difference in colour tone) [3, 5]: 5.73; eventual colour of bleached hair, Type C [3]: vibrant blue colours and Blue; CV75 (concentration affording 75% cell viability), 1 × CV75 [4]: 126 µg/mL
